Laboratory results from US20250134146A1, “FLAVANONE COMPOUNDS AND THEIR USE AS FLAVOR MODIFIERS” (Firmenich Incorporated, priority 2022, published 2025).

Tests used:
T1R sweet taste receptor = biological target: T1, T1R sweet taste receptor (Homo sapiens, UniProt Q7RTX0+Q8TE23); assay: in vitro cell-based assay, cells overexpressing the T1R sweet taste receptor; sweet dose-response curves; settings: cells that overexpress the T1R sweet taste receptor; calculated from sweet dose-response curves
T1 construct: expressed in transfected cells
T1 sequence (Q8TE23 20-839): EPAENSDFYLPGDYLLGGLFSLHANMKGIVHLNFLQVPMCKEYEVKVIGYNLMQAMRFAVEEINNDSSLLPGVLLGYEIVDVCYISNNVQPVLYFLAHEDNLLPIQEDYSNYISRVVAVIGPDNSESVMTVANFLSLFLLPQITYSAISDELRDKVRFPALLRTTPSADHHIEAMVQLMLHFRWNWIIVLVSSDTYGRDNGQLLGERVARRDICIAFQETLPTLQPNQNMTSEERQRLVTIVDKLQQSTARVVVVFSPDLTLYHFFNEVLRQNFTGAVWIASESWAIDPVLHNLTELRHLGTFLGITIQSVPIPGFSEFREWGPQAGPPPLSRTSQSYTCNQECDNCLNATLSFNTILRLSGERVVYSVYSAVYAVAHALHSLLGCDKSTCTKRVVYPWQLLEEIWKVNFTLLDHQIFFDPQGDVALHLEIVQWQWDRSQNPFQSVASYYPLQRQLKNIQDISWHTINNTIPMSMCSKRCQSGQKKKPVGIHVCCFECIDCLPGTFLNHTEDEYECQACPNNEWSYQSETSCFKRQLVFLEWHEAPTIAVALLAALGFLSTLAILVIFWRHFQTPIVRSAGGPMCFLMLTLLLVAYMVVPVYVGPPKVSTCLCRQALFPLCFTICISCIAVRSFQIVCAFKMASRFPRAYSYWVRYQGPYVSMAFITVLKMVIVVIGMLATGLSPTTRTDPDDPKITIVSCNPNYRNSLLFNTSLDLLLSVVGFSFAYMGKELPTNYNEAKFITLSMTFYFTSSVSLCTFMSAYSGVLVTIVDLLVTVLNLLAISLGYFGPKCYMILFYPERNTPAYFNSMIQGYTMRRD
T1 sequence (Q7RTX0 21-852): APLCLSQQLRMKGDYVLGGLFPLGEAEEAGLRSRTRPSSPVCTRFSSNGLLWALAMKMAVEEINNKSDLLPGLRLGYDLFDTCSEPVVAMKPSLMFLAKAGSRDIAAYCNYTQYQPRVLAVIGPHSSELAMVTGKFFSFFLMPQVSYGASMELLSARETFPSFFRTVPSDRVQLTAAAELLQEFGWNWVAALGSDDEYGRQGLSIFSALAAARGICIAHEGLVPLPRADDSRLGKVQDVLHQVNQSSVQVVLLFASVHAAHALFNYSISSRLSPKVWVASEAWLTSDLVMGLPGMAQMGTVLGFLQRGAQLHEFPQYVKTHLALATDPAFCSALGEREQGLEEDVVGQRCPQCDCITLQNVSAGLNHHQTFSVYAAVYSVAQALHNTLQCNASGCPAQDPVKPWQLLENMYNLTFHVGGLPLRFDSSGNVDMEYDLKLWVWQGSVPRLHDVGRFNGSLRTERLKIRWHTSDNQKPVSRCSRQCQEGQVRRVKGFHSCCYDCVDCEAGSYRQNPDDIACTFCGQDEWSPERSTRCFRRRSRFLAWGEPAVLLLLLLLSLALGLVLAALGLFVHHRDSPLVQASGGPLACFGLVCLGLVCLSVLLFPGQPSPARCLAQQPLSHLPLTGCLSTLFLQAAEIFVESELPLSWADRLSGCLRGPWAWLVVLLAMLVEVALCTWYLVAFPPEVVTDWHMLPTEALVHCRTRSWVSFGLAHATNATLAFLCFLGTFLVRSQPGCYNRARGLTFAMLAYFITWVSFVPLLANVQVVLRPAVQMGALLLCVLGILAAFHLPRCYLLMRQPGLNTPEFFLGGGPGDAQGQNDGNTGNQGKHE
Experimental: Each of Compounds 101-107, 113, and 117-129 was either synthesized or separated from the corresponding synthetic racemate. Thereafter, the compounds were tested in an in vitro cell-based assay having cells that overexpress the T1R sweet taste receptor. The sweet dose-response curves were recorded and the EC50 was calculated. Table 4 sets forth the calculated EC50 values for the compounds tested.

Human Panelists [1] = assay: sensory evaluation of sweetness intensity relative to 1.5% sucrose solution (Threshold Concentration); format: in vivo; settings: highest concentration judged less sweet than 1.5% sucrose solution, trained sensory panel of at least 8 panelists
Description: (§1) Test samples containing selected experimental compounds were sensory evaluated for sweetness intensity relative to 1.5% sucrose solution by a trained sensory panel of at least 8 panelists. The highest concentration of a Compound which panelists determined to be less sweet than 1.5% sucrose solution was set as its Threshold Concentration (TC). Next, panelists evaluated the sweetness of 6% sucrose solution containing each Compound at its Threshold Concentration (TC), relative to pure sucrose solutions at varying concentrations. Table 5 summarizes the sensory evaluation data for compounds 101,102, 105, 107 and 122-125, 127, 128.

Human Panelists [2] = assay: sensory evaluation of sweetness of 6% sucrose solution containing Compound at its Threshold Concentration, relative to pure sucrose solutions; format: in vivo; settings: 6% sucrose solution plus Compound at its Threshold Concentration, compared with pure sucrose solutions
Description: as §1

Row | Structure (SMILES) | EC50 (T1R sweet taste receptor) [µM] | Threshold Concentration (TC) - less sweet than 1.5% sucrose (Human Panelists [1]) [ppm] | Threshold Concentration (TC) - less sweet than 1.5% sucrose (Human Panelists [1]; value in brackets) [µM] | Sucrose concentration of equal sweetness to (6% sucrose + Compound at its TC) (Human Panelists [2])
1 | CCO[C@@H]1C(=O)c2c(O)cc(O)cc2O[C@H]1c1ccc(OC)c(O)c1 (relative stereo) [Compound 117, (trans)-5,7-dihydroxy-2-(3-hydroxy-4-methoxyphenyl)-3-ethoxychroman-4-one] | 1 | – | – | –
2 | COC1C(=O)c2c(O)cccc2OC1c1ccc(O)cc1 (stereo not drawn) [Compound 104, (trans)-5-hydroxy-2-(4-hydroxyphenyl)-3-methoxychroman-4-one] | 4 | – | – | –
3 | CCO[C@@H]1C(=O)c2c(O)cccc2O[C@H]1c1ccc(OC)c(O)c1 (relative stereo) [Compound 119, (trans)-5-hydroxy-2-(3-hydroxy-4-methoxyphenyl)-3-ethoxychroman-4-one] | 0.4 | – | – | –
4 | CO[C@@H]1C(=O)c2c(O)cc(O)cc2O[C@H]1c1ccc(O)cc1 (racemic) [Compound 101, (trans)-5,7-dihydroxy-2-(4-hydroxyphenyl)-3-methoxychroman-4-one] | – | 11 | 36 | ≥7.5%
5 | CCO[C@@H]1C(=O)c2c(O)cc(O)cc2O[C@H]1c1ccc(O)cc1 (relative stereo) [Compound 118, (trans)-5,7-dihydroxy-2-(4-hydroxyphenyl)-3-ethoxychroman-4-one] | 30 | – | – | –
6 | COc1cc(O)c2c(c1)O[C@@H](c1ccc(OC)c(O)c1)[C@H](OC)C2=O (relative stereo) [Compound 113, (trans)-5-hydroxy-2-(3-hydroxy-4-methoxyphenyl)-3,7-dimethoxychroman-4-one] | 25 | – | – | –
7 | COc1ccc([C@@H]2Oc3cc(O)cc(O)c3C(=O)[C@H]2OC)cc1O (racemic) [Compound 102, (trans)-5,7-dihydroxy-2-(3-hydroxy-4-methoxyphenyl)-3-methoxychroman-4-one] | 1 | 4 | 12 | ≥7.5%
8 | COc1ccc([C@@H]2Oc3cccc(O)c3C(=O)[C@H]2OC)cc1O (racemic) [Compound 105, (trans)-5-hydroxy-2-(3-hydroxy-4-methoxyphenyl)-3-methoxychroman-4-one] | 0.1 | 1.5 | 4.8 | ≥7.5%
9 | COc1ccc([C@@H]2Oc3cc(O)ccc3C(=O)[C@H]2OC)cc1O (racemic) [Compound 107, (trans)-7-hydroxy-2-(3-hydroxy-4-methoxyphenyl)-3-methoxychroman-4-one] | 7 | 11 | 35 | ≥7.5%
10 | CO[C@@H]1C(=O)c2ccc(O)cc2O[C@H]1c1ccc(O)cc1 (relative stereo) [Compound 106, (trans)-7-hydroxy-2-(4-hydroxyphenyl)-3-methoxychroman-4-one] | 92 | – | – | –

Further lines, with some results ahead:

Row | EC50 (T1R sweet taste receptor) [µM] | Structure (SMILES) | Threshold Concentration (TC) - less sweet than 1.5% sucrose (Human Panelists [1]) [ppm] | Threshold Concentration (TC) - less sweet than 1.5% sucrose (Human Panelists [1]; value in brackets) [µM] | Sucrose concentration of equal sweetness to (6% sucrose + Compound at its TC) (Human Panelists [2])
11 | > 200 | COc1ccc([C@@H]2Oc3cc(O)ccc3C(=O)[C@H]2OC)cc1O (relative stereo) [Compound 129, (−)-(trans)-7-hydroxy-2-(3-hydroxy-4-methoxyphenyl)-3-methoxychroman-4-one] | – | – | –
12 | 9 | COc1ccc([C@H]2Oc3cc(O)ccc3C(=O)[C@@H]2OC)cc1O (stereo in doubt) [Compound 128, (+)-(trans)-7-hydroxy-2-(3-hydroxy-4-methoxyphenyl)-3-methoxychroman-4-one] | 5 | 16 | ≥8.0%
13 | 0.7 | COc1ccc([C@H]2Oc3cc(O)cc(O)c3C(=O)[C@@H]2OC)cc1O (single isomer, unassigned) [Compound 122, (+)-(trans)-5,7-dihydroxy-2-(3-hydroxy-4-methoxyphenyl)-3-methoxychroman-4-one] | 2.5 | 7.5 | ≥8.0%,
14 | 180 | CO[C@@H]1C(=O)c2c(O)cc(O)cc2O[C@H]1c1cc(O)c(O)c(O)c1 (relative stereo) [Compound 121, (trans)-2-(3,4,5-trihydroxyphenyl)-5,7-dihydroxy-3-methoxychroman-4-one] | – | – | –
15 | 10 | CO[C@H]1C(=O)c2c(O)cc(O)cc2O[C@@H]1c1ccc(O)cc1 (stereo in doubt) [Compound 124, (+)-(trans)-5,7-dihydroxy-2-(4-hydroxyphenyl)-3-methoxychroman-4-one] | 5 | 16 | ≥8.0%
16 | > 100 | CO[C@@H]1C(=O)c2c(O)cc(O)cc2O[C@H]1c1ccc(O)cc1 (relative stereo) [Compound 125, (−)-(trans)-5,7-dihydroxy-2-(4-hydroxyphenyl)-3-methoxychroman-4-one] | – | – | –
17 | 0.03 | COc1ccc([C@H]2Oc3cccc(O)c3C(=O)[C@@H]2OC)cc1O (stereo in doubt) [Compound 126, (+)-(trans)-5-hydroxy-2-(3-hydroxy-4-methoxyphenyl)-3-methoxychroman-4-one] | – | – | –
18 | 1 | COc1ccc([C@@H]2Oc3cccc(O)c3C(=O)[C@H]2OC)cc1O (relative stereo) [Compound 127, (−)-(trans)-5-hydroxy-2-(3-hydroxy-4-methoxyphenyl)-3-methoxychroman-4-one] | – | – | –
19 | 8 | CCOC1C(=O)c2ccc(O)cc2OC1c1ccc(OC)c(O)c1 (stereo not drawn) [Compound 120, (tans)-7-hydroxy-2-(3-hydroxy-4-methoxyphenyl)-3-ethoxychroman-4-one] | – | – | –
